Molecules are shown by their SMILES. Like-named read-outs stand apart in the source and are kept apart here.

Data on ten compounds can be found in patent publication US9758485B2, “Compounds for controlling arthropods” (priority 2013, dated 2017).

The nature of data set [1]: logP determination by HPLC on a reversed-phase column (C18), EEC Directive 79/831 Annex V.A8. Type of data set: physicochemical. The conditions noted are these: for log P: HPLC on reversed-phase column (C18).
The test system of data set [2] is Ctenocephalides felis. Description: Ctenocephalides felis - oral test. The class given is in vivo. The conditions noted are these: Ctenocephalides felis, po, 48 h; application rate 100 ppm in citrated cattle blood; adult fleas; kill after 2 days; read-out: efficacy. Summed up: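 Fleas ingest treated citrated cattle blood (DMSO formulation) through parafilm; percent killed assessed after two days.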

Another data set deals with Lucilia cuprina. Briefly: Lucilia cuprina test. Type of data set: in vivo. Particulars: Lucilia cuprina, 48 h; application rate 100 ppm; L1 larvae in minced horsemeat; kill after 2 days; read-out: efficacy. Summed up: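 Mortality (%) of first-instar blowfly larvae, about 20 per vessel, recorded 2 days after exposure to compound-treated minced horsemeat. Compound dissolved in dimethyl sulphoxide, then water-diluted to the desired concentration.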

Another data set relates to Phaedon cochleariae. Briefly: Phaedon cochleariae - spray test. The conditions noted are these: Phaedon cochleariae, foliar, 168 h, larvae on Chinese cabbage leaf discs, after 7 days, read-out: efficacy; for pest or weed control at 100 g/ha: application rate 100 g/ha. The class given is in vivo. The protocol: Phaedon cochleariae—Spray Test
(§1) Solvent: 78.0 parts by weight of acetone and 1.5 parts by weight of dimethylformamide
(§2) Emulsifier: alkylaryl polyglycol ether
(§3) To produce an appropriate active ingredient formulation, 1 part by weight of active ingredient is dissolved using the specified parts by weight of solvent and made up with water containing an emulsifier concentration of 1000 ppm until the desired concentration is attained. To produce further test concentrations, the preparation is diluted with emulsifier-containing water.
Discs of Chinese cabbage leaves (Brassica pekinensis) are sprayed with an active ingredient formulation of the desired concentration and, after drying, populated with larvae of the mustard beetle (Phaedon cochleariae).
After 7 days, efficacy in % is determined. 100% means that all the beetle larvae have been killed; 0% means that no beetle larvae have been killed.

Another data set relates to Spodoptera frugiperda. Description: Spodoptera frugiperda - spray test. The class given is in vivo. The conditions noted are these: foliar, 168 h, caterpillars on maize leaf discs, after 7 days, read-out: efficacy; for pest or weed control at 100 g/ha: application rate 100 g/ha. The method, then: Spodoptera frugiperda—Spray Test
as §1, §2, §3
Leaf discs of maize (Zea mays) are sprayed with an active ingredient formulation of the desired concentration and, after drying, populated with caterpillars of the armyworm (Spodoptera frugiperda).
After 7 days, efficacy in % is determined. 100% means that all the caterpillars have been killed; 0% means that no caterpillars have been killed.

In a further data set the test system is Tetranychus urticae. Briefly: Tetranychus urticae - spray test, OP-resistant. The class given is in vivo. Particulars: foliar, 144 h, bean leaf discs, after 6 days, read-out: efficacy; for pest or weed control at 100 g/ha: application rate 100 g/ha. The protocol: Tetranychus urticae—Spray Test, OP-Resistant
as §1, §2, §3
Discs of bean leaves (Phaseolus vulgaris) infested by all stages of the greenhouse red spider mite (Tetranychus urticae) are sprayed with an active ingredient formulation of the desired concentration.
After 6 days, efficacy in % is determined. 100% means that all the spider mites have been killed; 0% means that none of the spider mites have been killed.

A further data set relates to Rhipicephalus sanguineus. Briefly: Rhipicephalus sanguineus - in vitro contact tests with adult brown dog ticks. The class given is in vivo. The conditions noted are these: application rate 5 μg/cm^2, after 48 h (dead or moribund). Summed up:
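Test compound was dissolved in acetone p.a. (9 mg in 1 ml, then diluted), and 250 μl were spread evenly over the inner surface of 25 ml test tubes on an orbital shaker at 30 rpm for 2 h. Once the solvent evaporated, 5-10 adult Rhipicephalus sanguineus ticks were sealed in, kept dark at room temperature, and after 48 h placed on a 45-50° C. hotplate to score dead or moribund ticks.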

The subject of a further data set is Boophilus microplus. Description: Boophilus microplus - injection test. The class given is in vivo. Particulars: Rhipicephalus microplus, 168 h; application rate 20 μg/animal; injected into engorged adult female ticks; laying of fertile eggs, after 7 days; read-out: efficacy. Summed up: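 Engorged adult female Boophilus microplus ticks (5 per dose) each received a 1 μl abdominal injection of compound in DMSO and were held in a climate-controlled room. Efficacy was scored after 7 days from fertile egg laying, with unclear eggs kept until hatching (~42 days); 100% means no fertile eggs.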

In a further data set the test system is Musca domestica. Description: Musca domestica test. The class given is in vivo. The conditions noted are these: application rate 100 ppm; adult houseflies; kill after 2 days. Summed up: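 Water-diluted DMSO stock of compound, mixed onto a sugar-treated sponge, served as the sole exposure route for ten adult houseflies. Kill percentage scored at 2 days.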

In a further data set the test system is Meloidogyne incognita. Description: Meloidogyne incognita test. The class given is in vivo. The conditions noted are these: application rate 20 ppm; formation of galls on lettuce roots after 14 days. The protocol: Meloidogyne incognita Test
Solvent: 125.0 parts by weight of acetone
To produce an appropriate active ingredient formulation, 1 part by weight of active ingredient is mixed with the stated amount of solvent and the concentrate is diluted with water to the desired concentration.
Vessels are filled with sand, active ingredient solution, an egg/larvae suspension of the southern root-knot nematode (Meloidogyne incognita) and lettuce seeds. The lettuce seeds germinate and the plants develop. The galls develop on the roots.
After 14 days, the nematicidal efficacy in % is determined by the formation of galls. 100% means that no galls were found; 0% means that the number of galls on the treated plants corresponds to the untreated control.

Data set [3] has as its system Ctenocephalides felis. Description: Ctenocephalides felis - in vitro contact tests with adult cat fleas. The class given is in vivo. Particulars: application rate 5 μg/cm^2 (=500 g/ha), after 48 h (dead or moribund). Summed up:
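Efficacy, as share of dead or moribund adult Ctenocephalides felis, read 48 h after placing 5-10 fleas in tubes coated by acetone solution (5 μg/cm^2 at 900 ppm). Incubation horizontal at room temperature, ambient humidity; immobile or uncoordinated fleas scored.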

Data set [4] deals with Boophilus microplus Parkhurst strain, SP-resistant. Briefly: Boophilus microplus - dip test. The class given is in vivo. Particulars: application rate 100 ppm; dip of engorged adult female ticks; laying of fertile eggs, after 7 days. In a few lines:
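Efficacy reflects suppression of fertile egg laying: 0% means all eggs fertile, 100% none, read at 7 days, doubtful eggs kept ~42 days for larval hatch. Treatment was a complete dip of 8–10 engorged adult female ticks (SP-resistant Parkhurst strain) in a water dilution of a DMSO stock.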

Setting [5] is: reversed-phase HPLC column (C18), HPLC, reversed-phase C18, acetonitrile/water with formic acid, 55° C., read-out: logP.
Where [6] appears, read: reversed-phase HPLC column (C18), HPLC-MS method a), Table I-T3; read-out: logP^a).
Setting [7] is: reversed-phase HPLC column (C18), HPLC-MS method a); read-out: logP^a).

As to `O=C(NC1CC1)c1cc(-c2cnn(-c3c(F)cc(C(F)(F)F)cc3F)c2)ccc1Cl` [I-T3-48, 2-chloro-N-cyclopropyl-5-[1-[2,6-difluoro-4-(trifluoromethyl)phenyl]pyrazol-4-yl]benzamide], the chromatographic logP in [1] (setting [5]), in [1] (setting [6]) and in data set [1] (setting [7]) was 3.2 in each case. For the same compound, the pest or weed control at 100 ppm with Ctenocephalides felis [2] and with Lucilia cuprina was 100% each time. Also, the pest or weed control at 100 g/ha with Phaedon cochleariae and with Spodoptera frugiperda was 100% throughout.
On to `COc1cc(C(F)(F)F)cc(F)c1-n1cc(-c2ccc(Cl)c(C(=O)NC3CC3)c2)cn1` [I-T3-50, 2-chloro-N-cyclopropyl-5-[1-[2-fluoro-6-methoxy-4-(trifluoromethyl)phenyl]pyrazol-4-yl]benzamide], for which the chromatographic logP in [1] (setting [5]), in [1] (setting [6]) and in data set [1] (setting [7]) was 3.1 each time. Moreover, the pest or weed control at 100 ppm in the data set with Ctenocephalides felis [2] and in the data set on Lucilia cuprina was 100% in each case. Besides, the results for the pest or weed control at 100 g/ha in the data set on Phaedon cochleariae, in the data set with Spodoptera frugiperda and in the data set with Tetranychus urticae were 100%, 83% and 90%, respectively.
For the compound `Cc1cc(C(F)(C(F)(F)F)C(F)(F)F)cc(C(F)(F)F)c1-n1cc(-c2ccc(Cl)c(C(=S)NC3CC3)c2)cn1` [I-T3-161, 2-chloro-N-cyclopropyl-5-[1-[2-methyl-4-[1,2,2,2-tetrafluoro-1-(trifluoromethyl)ethyl]-6-(trifluoromethyl)phenyl]pyrazol-4-yl]benzenecarbothioamide], the chromatographic logP came to 5 in data set [1] (setting [5]); 5 in data set [1] (reversed-phase HPLC column (C18), HPLC-MS method a), reversed-phase column (C18); read-out: logP^a)); 5 in data set [1] (reversed-phase HPLC column (C18), HPLC-MS, reversed-phase column (C18), read-out: log P). Also, the efficacy in the data set with Rhipicephalus sanguineus and in the data set with Musca domestica was 100% in each case. For the same compound, the pest or weed control at 0.02 mg in the data set on Boophilus microplus amounted to 100%. Moreover, the pest or weed control at 100 ppm in the data set with Ctenocephalides felis [2] and in the data set with Lucilia cuprina was 100% in each case. Besides, the pest or weed control at 100 g/ha with Phaedon cochleariae, in the data set on Spodoptera frugiperda and with Tetranychus urticae was 100% throughout.
As usually defined, the log P is a log measure of how a compound divides between an organic and an aqueous phase. High values mean a more lipophilic compound, low ones a more hydrophilic compound. On to `O=C(NC1CC1)c1cc(-c2cnn(-c3c(Cl)cc(C(F)(F)F)c(F)c3Cl)c2)ccc1Cl` [I-T3-184], for which, in data set [1], the “log P” value was 3.6. The compound further had an efficacy in the data set on Meloidogyne incognita of 90%.
The matching figures for `N#CC1(NC(=O)c2cc(-c3cnn(-c4c(Cl)cc(C(F)(F)F)c(F)c4Cl)c3)ccc2Cl)CC1` [I-T3-185]: 3.6 and 90%.
Regarding `Cc1cc(C(F)(C(F)(F)F)C(F)(F)F)cc(C)c1-c1cnn(-c2ccc(Cl)c(C(=O)NC3CC3)c2)c1` [I-T4-1, N-cyclopropyl-2-chloro-5-[4-[2,6-dimethyl-4-[1,2,2,2-tetrafluoro-1-(trifluoromethyl)ethyl]phenyl]pyrazol-1-yl]benzamide], the chromatographic logP in [1] (setting [5]) is 4.74. The pest or weed control at 100 ppm in the data set with Ctenocephalides felis [2] and with Lucilia cuprina was 100% in each case. Moreover, the pest or weed control at 100 g/ha in the data set with Phaedon cochleariae, in the data set with Spodoptera frugiperda and in the data set with Tetranychus urticae was 100% in each case.
As for `Cc1cc(C(F)(C(F)(F)F)C(F)(F)F)cc(C)c1-c1cnn(-c2cnc(Cl)c(C(=O)NC3CC3)c2)c1` [I-T4-3, 2-chloro-N-cyclopropyl-5-[4-[2,6-dimethyl-4-[1,2,2,2-tetrafluoro-1-(trifluoromethyl)ethyl]phenyl]pyrazol-1-yl]pyridine-3-carboxamide], the chromatographic logP in data set [1] (setting [5]) was determined as 4.42. The pest or weed control at 100 ppm in the data set with Ctenocephalides felis [2] and in the data set with Lucilia cuprina was 100% each time. Also, the pest or weed control at 100 g/ha in the data set with Phaedon cochleariae, with Spodoptera frugiperda and with Tetranychus urticae was 100% each time.
Take `Cc1cc(C(F)(C(F)(F)F)C(F)(F)F)cc(C)c1-c1cc(-c2ccc(Cl)c(C(=O)NC3CC3)c2)on1` [I-T22-1, 2-chloro-N-cyclopropyl-5-[3-[2,6-dimethyl-4-[1,2,2,2-tetrafluoro-1-(trifluoromethyl)ethyl]phenyl]isoxazol-5-yl]benzamide]: the chromatographic logP in data set [1] (setting [5]) was found to be 4.75. The pest or weed control at 100 ppm in the data set with Ctenocephalides felis [2] and with Lucilia cuprina was 100% in each case. In addition, the pest or weed control at 100 g/ha in the data set on Phaedon cochleariae stood at 100%; in the data set with Spodoptera frugiperda, 100%; in the data set on Tetranychus urticae it was 90%.
`Cc1cc(C(F)(C(F)(F)F)C(F)(F)F)cc(C(F)(F)F)c1-c1cc(-c2ccc(Cl)c(C(=O)NC3(C#N)CC3)c2)on1` [I-T22-7, 2-chloro-N-(1-cyanocyclopropyl)-5-[3-[2-methyl-4-[1,2,2,2-tetrafluoro-1-(trifluoromethyl)ethyl]-6-(trifluoromethyl)phenyl]isoxazol-5-yl]benzamide]: the chromatographic logP in data set [1] (setting [5]) is 4.7. For the same compound, the efficacy (in the data set on Rhipicephalus sanguineus; with Ctenocephalides felis [3]; in data set [4]; with Musca domestica) was 100% throughout. For the same compound, the pest or weed control at 0.02 mg with Boophilus microplus turned out to be 100%. Further, the pest or weed control at 100 ppm with Ctenocephalides felis [2] and in the data set with Lucilia cuprina was 100% throughout. In addition, the pest or weed control at 100 g/ha in the data set on Phaedon cochleariae, with Spodoptera frugiperda and in the data set on Tetranychus urticae was 100% in each case.
Take `O=C(NC1CC1)c1cc(-c2cc(-c3c(Cl)cc(C(F)(C(F)(F)F)C(F)(F)F)cc3Cl)on2)ccc1Cl` [I-T23-1, 2-chloro-N-cyclopropyl-5-[5-[2,6-dichloro-4-[1,2,2,2-tetrafluoro-1-(trifluoromethyl)ethyl]phenyl]isoxazol-3-yl]benzamide]: the chromatographic logP in data set [1] (setting [5]) came to 4.96. Moreover, the pest or weed control at 100 ppm in the data set with Ctenocephalides felis [2] and with Lucilia cuprina was 100% each time. In addition, the pest or weed control at 500 g/ha with Phaedon cochleariae (application rate 500 g/ha), with Spodoptera frugiperda (application rate 500 g/ha) and in the data set with Tetranychus urticae (application rate 500 g/ha) was 100% each time.
